{"source": "paper PMC10076671", "about": "“Spider venom-derived peptide JZTX-14 prevents migration and invasion of breast cancer cells via inhibition of sodium channels” (Frontiers in Pharmacology, 2023)", "key": {"[1]": {"system": "MDA-MB-231 cells", "experiment": "Transwell assay (cell migration/invasion)", "type": "cell-based, human", "details": "24 h incubation, crystal violet staining", "procedure": "Cell migration assay was performed using 24-well transwell plate (Corning, United States). 5×10^4 cells/well were seeded in the upper chamber in DMEM/F12 medium containing 0.1% BSA, the lower chamber contained DMEM/F12% and […]. After 24 h incubation, the cells on the filter membrane were washed three times with PBS, then fixed with 4% paraformaldehyde for 30 min and stained with 0.1% crystal violet for 20 min. The cells on the filter were observed by microscopy and the number of cells was determined using the quantification software ImageJ."}, "[2]": {"system": "MDA-MB-231 cells", "experiment": "Western blot analysis of EMT markers", "type": "cell-based, human", "details": "compared to controls", "procedure": "Cells treated with different concentrations of JZTX-14 were lysed with RIPA lysis solution and samples were collected. Protein concentrations were determined by BCA assay kit (Biosharp, China) and denatured by adding SDS loading buffer (Bio-Bad, United States) followed by boiling. Equal amounts of total protein lysates were subjected to SDS-PAGE and transferred to PVDF membrane (Merck Millipore, United States), 5% BSA was used for blocking (1 h). Primary antibody (Nav1.5, E-cadherin, GAPDH and Vimentin antibody for Proteintech; N-cadherin for Immunoway) was incubated overnight at 4°C, secondary antibody (Abbkine, China) was incubated for 1 h at room temperature and the membrane was visualized by chemiluminescence."}}, "note": "Where a SMILES comes first, the peptide text is derived from it. Bridges are numbered along the chain shown (N, C = ends).", "data": [{"smiles": "CC[C@H](C)[C@H](NC(=O)[C@@H]1CSSC[C@@H]2NC(=O)[C@@H]3CCCN3C(=O)[C@@H]3CCCN3C(=O)[C@H](CCC(N)=O)NC(=O)CNC(=O)[C@@H]3CCCN3C(=O)[C@H](Cc3c[nH]cn3)NC(=O)[C@@H]3CSSC[C@H](NC(=O)[C@H](C)NC(=O)[C@H](CC(C)C)NC(=O)CNC(=O)[C@H](CO)NC(=O)[C@H](CSSC[C@H](NC(=O)CN)C(=O)N[C@@H](CCC(N)=O)C(=O)N[C@@H](CCCCN)C(=O)N[C@@H](Cc4ccccc4)C(=O)N[C@@H](Cc4ccccc4)C(=O)N[C@@H](Cc4c[nH]c5ccccc45)C(=O)N[C@@H]([C@@H](C)O)C(=O)N3)NC2=O)C(=O)N[C@@H]([C@@H](C)O)C(=O)N[C@@H](Cc2c[nH]c3ccccc23)C(=O)N2CCC[C@H]2C(=O)N[C@@H]([C@@H](C)O)C(=O)N[C@@H](CCC(=O)O)C(=O)N[C@@H]([C@@H](C)CC)C(=O)N1)C(=O)N[C@@H](CC(C)C)C(N)=O", "note": "[JZTX-14] (H-GCQKFFWTCHPGQPPCCSGLACTWPTEICIL-NH2; disulfide 2-17, 9-22, 16-29)", "values": [{"measurement": "Inhibition of cell invasion (transwell)", "setting": "[1]; 6 μM", "value": 50, "unit": "%"}, {"measurement": "Inhibition of cell invasion (transwell)", "setting": "[1]; 12.5 μM", "value": 75, "unit": "%"}, {"measurement": "E-cadherin expression level (western blot)", "setting": "[2]; epithelial marker", "value": "significantly increased"}, {"measurement": "MMP2 expression level (western blot)", "setting": "[2]; matrix metalloproteinase", "value": "decreased"}, {"measurement": "N-cadherin expression level (western blot)", "setting": "[2]; mesenchymal marker", "value": "decreased"}, {"measurement": "Vimentin expression level (western blot)", "setting": "[2]; mesenchymal marker", "value": "decreased"}]}]}
